Source: paper PMC4794209, “Preformulation Studies on Piperlongumine” (PLoS ONE, 2016)
In brackets after ≈: the same amount, converted by molar mass. Read-outs that look alike come from different tables or passages of the source.

Key:
Type in all cases: physicochemical
[1] = Solubility studies (excess drug, agitation at least 24 h, HPLC)
Method: Solubility of piperlongumine was determined in purified water and the following cosolvent and surfactant systems: 5, 15, 30% (v/v) acetonitrile; 5, 15, 30, 50, 100% (v/v) of polyethylene glycol 400 (PEG 400), ethanol, glycerin and propylene glycol; 3, 7, 10% (w/v) of Tween 80; 2.5, 5, 10% (w/v) of Cremophor Rh 40; and a solution composition of 10% ethanol: 40% PEG 400 (w/v). Additionally, the complexing agents, sulfobutyl ether β-cyclodextrin sodium salt and hydroxyl-propyl-β-cyclodextrin, were examined at concentrations of 5, 10, 20, 40% (w/v).
An excess quantity of raw drug crystals were placed in a known volume of each medium in closed, light protected glass vials and allowed to agitate for at least 24 hours at ambient temperature. Samples were visually inspected to ensure that solid drug was still in excess and then filtered through a 0.2 μm PTFE filter. The filtrate was assayed via the previously described HPLC method and the concentration of piperlongumine in solution was determined.

[2] = n-octanol/water partitioning study; conditions: room temperature, read-out: Partition coefficient (log P)
Method: Piperlongumine crystals were placed in a small glass bottle containing equal volumes of n-octanol and water. The bottle was shaken for 24 hours, after which time, the bottle was allowed to equilibrate without mixing for an additional 24 hours to ensure full separation between the n-octanol and water layers. A sample from each layer was carefully withdrawn and analyzed by HPLC.

[3] = Photo-stability (UV sunlamps, 165 min); conditions: for Photo-degradation: UV exposure
Method: Photo-stability was examined by preparing four groups of samples, each containing a triplicate sample and one reference (protected from light). These groups covered high and low drug concentrations in the following compositions:
• 150 μg/ml of drug in 100% acetonitrile • 150 μg/ml of drug in 15:85 acetonitrile: water • 30 μg/ml of drug in 100% acetonitrile • 30 μg/ml of drug in 15:85 acetonitrile: water
Each sample was prepared in a transparent glass vial and closed without any entrapped air. A reference sample was utilized for each group by covering one of the vials with aluminum foil to protect it from the light exposure. All vials were exposed for 165 min using Sun 340 sunlamps yielding UV emission between 295 and 390 nm to include UVA and UVB wavelengths. Samples were placed in an area where the UV intensity was measured to be 1.57 mw/cm^2. After the exposure time, samples were analyzed using the HPLC method described previously.

[4] = Additional stability studies with antioxidants, chelator, hydrogen peroxide
Method: The addition of antioxidants such as ascorbic acid and sodium bisulfite and the chelator EDTA were evaluated with the drug at pH 3 (citrate buffer) and pH 7 (phosphate buffer). Samples in phosphate buffer were maintained at 26°C while the samples in citrate buffer were kept at 56°C. All three agents were used at a concentration of 0.05% w/v. Aliquots were withdrawn on a regular basis and pH and drug concentration were monitored. Piperlongumine stability was also examined after the addition of 1.5% w/v hydrogen peroxide in pH 3 citrate buffer at room temperature.

[5] = citrate, pH 3, 26°C, hydrogen peroxide 1.5% w/v
[6] = citrate, pH 3, 56°C, EDTA 0.05% w/v
[7] = citrate, pH 3, 56°C, ascorbic acid 0.05% w/v
[8] = citrate, pH 3, 56°C, no additional substance
[9] = citrate, pH 3, 56°C, sodium bisulfite 0.05% w/v
[10] = phosphate, pH 7, 26°C, EDTA 0.05% w/v
[11] = phosphate, pH 7, 26°C, ascorbic acid 0.05% w/v
[12] = phosphate, pH 7, 26°C, no additional substance
[13] = phosphate, pH 7, 26°C, sodium bisulfite 0.05% w/v

COc1cc(/C=C/C(=O)N2CCC=CC2=O)cc(OC)c1OC [piperlongumine, 1-[(2E)-3-(3,4,5-trimethoxyphenyl)prop-2-enoyl]-1,2,5,6-tetrahydropyridin-2-one]
solubility ([1]; 10% (w/v) Cremophor Rh 40, aqueous with cosolvent or surfactant or cyclodextrin, thermodynamic from solid, 10% (w/v) Cremophore Rh 40, read-out: Solubility): ~0.55 mg/mL (≈ 1.73 mM) | solubility ([1]; 10% (w/v) Tween 80, aqueous with cosolvent or surfactant or cyclodextrin, thermodynamic from solid, 10% Tween 80, read-out: Solubility): ~0.7 mg/mL (≈ 2.21 mM) | solubility ([1]; 10% ethanol: 40% PEG 400 (w/v), aqueous with cosolvent or surfactant or cyclodextrin, thermodynamic from solid, read-out: Solubility): ~1.7 mg/mL (≈ 5.36 mM) | solubility ([1]; 10% ethanol: 40% PEG 400 (w/v), read-out: Solubility): 1 mg/mL (≈ 3.15 mM) | solubility ([1]; 20% (w/v) hydroxypropyl-β-cyclodextrin, aqueous with cosolvent or surfactant or cyclodextrin, thermodynamic from solid, read-out: Solubility): ~1 mg/mL (≈ 3.15 mM) | solubility ([1]; 20% (w/v) hydroxypropyl-β-cyclodextrin, read-out: Solubility): 1 mg/mL (≈ 3.15 mM) | solubility ([1]; 20% (w/v) sulfobutyl ether β-cyclodextrin, aqueous with cosolvent or surfactant or cyclodextrin, thermodynamic from solid, read-out: Solubility): ~1 mg/mL (≈ 3.15 mM) | solubility ([1]; 30% (v/v) acetonitrile, aqueous with cosolvent or surfactant or cyclodextrin, thermodynamic from solid, 30% acetonitrile, read-out: Solubility): 1.6 mg/mL (≈ 5.04 mM) | Fold improvement in solubility ([1]; 30% acetonitrile vs water): 63 fold | solubility ([1]; 50% (v/v) PEG 400, aqueous with cosolvent or surfactant or cyclodextrin, thermodynamic from solid, 50% PEG 400, read-out: Solubility): ~1.1 mg/mL (≈ 3.47 mM) | solubility ([1]; 50% (v/v) ethanol, aqueous with cosolvent or surfactant or cyclodextrin, thermodynamic from solid, 50% ethanol, read-out: Solubility): ~2.3 mg/mL (≈ 7.25 mM) | solubility ([1]; 100% PEG 400, organic solvent or mixture, thermodynamic from solid, pure PEG 400, read-out: Solubility): ~22 mg/mL (≈ 69.3 mM) | solubility ([1]; 100% ethanol, organic solvent or mixture, thermodynamic from solid, pure ethanol, read-out: Solubility): ~11 mg/mL (≈ 34.7 mM) | Concentrations afforded ([1]; cosolvents and cyclodextrins): ≥ 1000 µg/mL | solubility ([1]; purified water, ambient temperature, read-out: Solubility in water (intrinsic solubility)): ~0.026 mg/mL (≈ 0.0819 mM) | solubility ([1]; thermodynamic from solid, purified water, ambient temperature, read-out: Solubility in water (intrinsic solubility)): 0.026 ± 0.0029 mg/mL (≈ 0.0819 mM) | logP at 24 h [2]: 2.37 ± 0.12 | Average % of drug remaining ± SD ([3]; 30 μg/ml, acetonitrile:water 15:85, UV 165 min): 79.0 ± 0.1% | Average % of drug remaining ± SD ([3]; 30 μg/ml, acetonitrile:water 100:00, UV 165 min): 39.5 ± 0.03% | Average % of drug remaining ± SD ([3]; 150 μg/ml, acetonitrile:water 15:85, UV 165 min): 82.3 ± 0.6% | Average % of drug remaining ± SD ([3]; 150 μg/ml, acetonitrile:water 100:00, UV 165 min): 44.5 ± 0.2% | Photo-degradation ([3]; 15:85 acetonitrile: water): approximately 20% | Concentration remaining of the initial concentration ([3]; light protected control samples, after exposure duration): 100% | Photo-degradation ([3]; pure acetonitrile): 60% | Photo-degradation upon exposure to an ultraviolet light source ([3]; qualitative): marked photo-degradation | Effect on the stability profile ([4]; addition of ascorbic acid and EDTA, pH 7 phosphate buffer, vs drug alone): did not have a significant effect | Effect on degradation ([4]; addition of ascorbic acid, pH 3): did not readily affect the degradation | Effect on degradation ([4]; addition of hydrogen peroxide (oxidizing agent)): does significantly increase degradation | Effect on degradation rate ([4]; addition of sodium bisulfite, pH 3 citrate buffer, 56°C, vs drug alone): did not affect the degradation rate | Time of degradation ([4]; addition of sodium bisulfite, pH 7): within a few minutes | T90 [4, 5]: 0.3 weeks | k values [4, 5]: 0.3369 weeks^-1 | T90 [4, 6]: 0.3 weeks | k values [4, 6]: 0.3266 weeks^-1 | T90 [4, 7]: 0.3 weeks | k values [4, 7]: 0.3706 weeks^-1 | T90 [4, 8]: 0.3 weeks | k values [4, 8]: 0.3107 weeks^-1 | T90 [4, 9]: 0.3 weeks | k values [4, 9]: 0.3860 weeks^-1 | T90 [4, 10]: 1.9 weeks | k values [4, 10]: 0.0559 weeks^-1 | T90 [4, 11]: 2.3 weeks | k values [4, 11]: 0.0459 weeks^-1 | T90 [4, 12]: 2.1 weeks | k values [4, 12]: 0.0494 weeks^-1 | T90 [4, 13]: 0.0 weeks | k values [4, 13]: 3069.8950 weeks^-1
